The source of these data is ChEMBL document CHEMBL1201862, “PubChem BioAssay data set” (2004).

SMILES strings stand for the structures.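 Values below derive from 48-hour exposures of cells grown in 96-well plates, with endpoints linearly interpolated between the two concentrations bracketing the appropriate inhibition level. GI50 marks 50% less growth.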 Activity calls are given as the source filed them. No stated cut-off is given here; in the data, active = GI50 up to about 1.1 µM and inactive = higher. A value given as a limit tells only on which side of the number the result lay.

Among the test systems are SF-539; M14; SNB-75; UACC-257; ACHN; MOLT-4; HT-29; HCT-15; SK-MEL-5; CCRF-CEM; SK-MEL-28; TK-10; NCI/ADR-RES; OVCAR-8; RPMI-8226; CAKI-1; UACC-62; NCI-H460; SR; A498.
What all share (experiment): NCI-60 cell line screen, 48 h

Regarding `Cc1cc(=O)n2nc(CCl)sc2n1`, the GI50 with SF-539 was 18.7 µM (inactive); in the test on M14, 11.2 µM (inactive); in the test with SNB-75, 10.8 µM (inactive); with UACC-257 it was 10.2 µM (inactive); with ACHN, 14.3 µM (inactive); with MOLT-4, 11.8 µM (inactive). Moreover, the GI50 with HT-29 is 14.8 µM (inactive); in the test on HCT-15 it was 13.6 µM; with SK-MEL-5, 10.6 µM (inactive); in the test with CCRF-CEM, 6.62 µM (inactive); in the test with SK-MEL-28, 13.2 µM (inactive); in the test with TK-10, 10.2 µM (inactive). Also, the GI50 in the test with NCI/ADR-RES is 20.7 µM (inactive); with OVCAR-8, 16.7 µM (inactive); in the test with RPMI-8226, 10.6 µM (inactive); with CAKI-1 it was 10.3 µM (inactive); with UACC-62, 14.4 µM (inactive); with NCI-H460 it was 11.4 µM (inactive). In addition, the GI50 with SR is 13.1 µM (inactive).
Turning to `Cc1ccc2c3c1[C@@H]1O[C@@H]1c1cccc(c1-3)[C@@H]1O[C@H]21`, the GI50 with M14 is 11 µM (inactive); in the test with SNB-75, 2.38 µM (inactive); in the test with A498, 19.1 µM (inactive); in the test with UACC-257, 15.9 µM (inactive); in the test on ACHN, 12.7 µM (inactive); with MOLT-4, 3.96 µM (inactive). In addition, the GI50 is 6.07 µM (inactive) in the test on HT-29; 15.3 µM with HCT-15; 15 µM (inactive) in the test on SK-MEL-5; 10.2 µM (inactive) with SK-MEL-28; 18.2 µM (inactive) in the test on TK-10; 18.2 µM (inactive) with NCI/ADR-RES. For the same molecule, the GI50 is 11.5 µM (inactive) with OVCAR-8, 16.4 µM (inactive) in the test with CAKI-1, 20 µM (inactive) with UACC-62 and 11.5 µM (inactive) in the test on SR.
Turning to `CC=C/C=C/[C@@H]1O[C@](O)([C@H](CC)C(=O)NC/C=C/C=C(\C)[C@@H](OC)[C@@H](C)[C@@H]2O[C@H](/C=C/C=C/C=C(\C)C(=O)c3c(O)cc[nH]c3=O)[C@H](O)[C@@H]2O)[C@H](O)[C@H](O)C1(C)C`, the GI50 in the test with SF-539, with M14, in the test with SNB-75, in the test with A498, in the test with UACC-257 and in the test on ACHN was > 100 µM (inactive) in each case. Also, the GI50 was 73.6 µM (inactive) in the test with MOLT-4; > 100 µM (inactive) in the test with HT-29; more than 100 µM in the test with HCT-15; > 100 µM (inactive) with SK-MEL-28; > 100 µM (inactive) with TK-10; > 100 µM (inactive) with NCI/ADR-RES. Also, the GI50 with OVCAR-8 is 72.3 µM (inactive); with RPMI-8226, 88.7 µM (inactive); with UACC-62, > 100 µM (inactive); with NCI-H460 it was 92.7 µM (inactive); in the test on SR it was > 100 µM (inactive).
With `O=C1C=C/C(=C/[C@H]2SSC=C[C@]23C=CC(=O)C3)C1`, the GI50 is 12.2 µM (inactive) in the test on SF-539; 17.2 µM (inactive) in the test on M14; 33.7 µM (inactive) in the test with SNB-75; 17.6 µM (inactive) in the test with A498; 28.1 µM (inactive) in the test on UACC-257; 18.1 µM (inactive) in the test with ACHN. The GI50 is 1.36 µM (inactive) in the test on MOLT-4; 11 µM (inactive) with HT-29; 14.9 µM in the test on HCT-15; 16.9 µM (inactive) with SK-MEL-5; 2.54 µM (inactive) with CCRF-CEM; 18.9 µM (inactive) in the test on SK-MEL-28. In addition, the GI50 in the test on TK-10 was 24.7 µM (inactive); with NCI/ADR-RES it was 23.8 µM (inactive); in the test with OVCAR-8, 25.9 µM (inactive); in the test with CAKI-1 it was 9.91 µM (inactive); with UACC-62 it was 18 µM (inactive); in the test on NCI-H460, 29.3 µM (inactive). Besides, the GI50 in the test on SR was 1.75 µM (inactive).
For the molecule `CCOC(=O)C1=NN(c2ccc(Cl)cc2)C2=CC(C)=NN(C)C(=S)N21`, the GI50 in the test on SF-539 is 22.6 µM (inactive); with M14 it was 59.7 µM (inactive); with SNB-75, 26.8 µM (inactive); in the test with UACC-257, > 100 µM (inactive); in the test on ACHN it was 72.6 µM (inactive); in the test on MOLT-4, > 100 µM (inactive). Also, the GI50 in the test on HT-29 was > 100 µM (inactive); in the test with HCT-15 it was 67.5 µM; in the test on SK-MEL-5, > 100 µM (inactive); in the test on CCRF-CEM it was > 100 µM (inactive); in the test with SK-MEL-28, > 100 µM (inactive); in the test with TK-10 it was 22 µM (inactive). Moreover, the GI50 is 65 µM (inactive) in the test with NCI/ADR-RES; 41.3 µM (inactive) with OVCAR-8; > 100 µM (inactive) with RPMI-8226; 19.9 µM (inactive) in the test with CAKI-1; 40.6 µM (inactive) in the test with UACC-62; > 100 µM (inactive) in the test on NCI-H460. Further, the GI50 with SR is > 100 µM (inactive).
Take `CN(C)C(=O)C(F)(F)C(c1ccc(Br)cc1)C1C(=O)N(C)C(=O)N(C)C1=O` (stereo not drawn): the GI50 in the test with M14 is > 100 µM (inactive); in the test on SNB-75, > 100 µM (inactive); with A498, > 100 µM (inactive); with UACC-257, > 100 µM (inactive); with ACHN, > 100 µM (inactive); in the test with HCT-15 it was more than 100 µM. In addition, the GI50 with SK-MEL-5, in the test with CCRF-CEM, with SK-MEL-28, with TK-10, in the test with NCI/ADR-RES and with RPMI-8226 was > 100 µM (inactive) each time. Also, the GI50 with CAKI-1, with UACC-62 and in the test on NCI-H460 was > 100 µM (inactive) each time.
As for `Cc1ccc(C(=O)Cc2nc3c([nH]c2=O)c(C)nn3-c2ccccc2)c(C)c1`, the GI50 in the test with SF-539 is > 10 µM (inactive); with M14 it was > 10 µM (inactive); in the test with SNB-75 it was 1.01 µM (active); with UACC-257 it was > 10 µM (inactive); in the test with ACHN it was > 10 µM (inactive); in the test with MOLT-4 it was > 10 µM (inactive). For the same molecule, the GI50 in the test with HT-29 was > 10 µM (inactive); with HCT-15, more than 10 µM; in the test with SK-MEL-5, > 10 µM (inactive); in the test with CCRF-CEM, 5.69 µM (inactive); in the test with SK-MEL-28, > 10 µM (inactive); in the test on TK-10, > 10 µM (inactive). Besides, the GI50 is 6.53 µM (inactive) in the test with NCI/ADR-RES; 8.22 µM (inactive) in the test on OVCAR-8; > 10 µM (inactive) with RPMI-8226; > 10 µM (inactive) in the test on CAKI-1; > 10 µM (inactive) in the test with UACC-62; > 10 µM (inactive) in the test on SR.
As for `CC[C@H]1CN2CCc3cc(OC)c(OC)cc3[C@@H]2C[C@@H]1C[C@H]1NCCc2cc(O)c(OC)cc21`, the GI50 in the test with SF-539 is 0.0308 µM (active); in the test on UACC-257, 0.0731 µM (active); in the test with MOLT-4, 0.0502 µM (active); in the test with HT-29 it was 0.0319 µM (active); with HCT-15, 0.0491 µM; with SK-MEL-5, 0.0592 µM (active). Further, the GI50 in the test on CCRF-CEM is 0.025 µM (active); with SK-MEL-28, 0.041 µM (active); in the test with NCI/ADR-RES, 0.543 µM (active); in the test on OVCAR-8 it was 0.025 µM (active); in the test with RPMI-8226, 0.146 µM (active); in the test on CAKI-1, 0.025 µM (active). Further, the results for the GI50 with UACC-62, in the test with NCI-H460 and in the test on SR were 0.0478 µM (active), 0.0282 µM (active) and < 0.01 µM (active), respectively.
As to `CN1C(=O)CC(=O)N1/C(=C/c1ccccc1)c1ccccc1`, the GI50 in the test with M14 was 65.8 µM (inactive); in the test with SNB-75 it was > 100 µM (inactive); in the test on UACC-257 it was > 100 µM (inactive); in the test with ACHN, 54.1 µM (inactive); in the test on MOLT-4 it was 30.3 µM (inactive); with HT-29, > 100 µM (inactive). Besides, the GI50 was 72.8 µM (inactive) in the test with SK-MEL-5; 21.3 µM (inactive) in the test on CCRF-CEM; > 100 µM (inactive) with SK-MEL-28; 33 µM (inactive) with TK-10; > 100 µM (inactive) with NCI/ADR-RES; > 100 µM (inactive) in the test on OVCAR-8. Further, the GI50 in the test on RPMI-8226 was 37.1 µM (inactive); in the test with CAKI-1, 23.7 µM (inactive); with UACC-62, 76.9 µM (inactive); with NCI-H460, 48 µM (inactive); with SR, 76.4 µM (inactive).
Consider `CC(=O)OCC1OC(Nc2ncc(-c3ccc(C)cc3)s2)C(OC(C)=O)C(OC(C)=O)C1OC(C)=O` (stereo not drawn), for which the GI50 was 43.8 µM (inactive) in the test on SF-539; 39 µM (inactive) with SNB-75; 48.2 µM (inactive) in the test with A498; 25.6 µM (inactive) in the test on UACC-257; 24.6 µM (inactive) in the test on MOLT-4; 29.2 µM (inactive) with HT-29. The GI50 in the test with HCT-15 is 37.5 µM; with SK-MEL-5 it was 33.3 µM (inactive); in the test on CCRF-CEM, 29.1 µM (inactive); in the test on SK-MEL-28, 39.1 µM (inactive); in the test on NCI/ADR-RES, 26.3 µM (inactive); with OVCAR-8 it was 39.7 µM (inactive). Besides, the GI50 in the test with RPMI-8226 is 24.7 µM (inactive); in the test on CAKI-1, 29 µM (inactive); in the test with UACC-62, 27 µM (inactive); in the test on NCI-H460, 31.5 µM (inactive).
`O=C(O)C(O)Cc1ccccn1` (stereo not drawn): the GI50 with M14 was > 100 µM (inactive); with A498 it was > 100 µM (inactive); in the test on UACC-257, > 100 µM (inactive); in the test on ACHN, > 100 µM (inactive); in the test on HT-29 it was > 100 µM (inactive); in the test on HCT-15 it was more than 100 µM. The GI50 in the test on SK-MEL-5, in the test on CCRF-CEM, in the test with SK-MEL-28, in the test with TK-10, with NCI/ADR-RES and in the test on OVCAR-8 was > 100 µM (inactive) in each case. Moreover, the GI50 in the test on RPMI-8226, with CAKI-1, with UACC-62, with NCI-H460 and in the test with SR was > 100 µM (inactive) throughout.
